Patent US8470527B2, “Method of inhibiting HIV-1 replication by administering modified GP41 C34 peptide derivatives with enhanced pharmacological properties” (Frontier Biotechnologies, Co., Ltd., priority 2002, dated 2013)
Read-outs that look alike come from different tables or passages of the source.

Assays:
[1] = tested on: HIV-1IIIB; assay: Cellular anti-HIV assay in fresh human PBMC cultures (reverse transcriptase activity and/or p24 readout); format: cell-based
Procedure: The four modified peptides FB006M, FB007M, FB010M, and FB010KM were conjugated to human serum albumin (HSA) by mixing prior to the antiviral test. The results appear in Table 8 below, where IC50 value is the 50% viral inhibition drug concentration, and TC50 value is the 50% cytotoxicity drug concentration.
Pretitered aliquots of HIV-1IIIB was removed from the freezer (−80° C.) and thawed rapidly to room temperature in a biological safety cabinet immediately before use.
Fresh human PBMCs were isolated from screened donors, seronegative for HIV and HBV (Interstate Blood Bank, Inc.; Memphis, Tenn.). Cells were pelleted/washed 2-3 times by low speed centrifugation and resuspension in PBS to remove contaminating platelets. The Leukophoresed blood was then diluted 1:1 with Dulbecco's phosphate buffered saline (PBS) and layered over 14 mL of Lymphocyte Separation Medium in a 50 mL centrifuge tube and then centrifuged for 30 minutes at 600×g. Banded PBMCs were gently aspirated from the resulting interface and subsequently washed 2× with PBS by low speed centrifugation. After the final wash, cells were enumerated by trypan blue exclusion and re-suspended at 1×10^7 cells/mL in RPMI 1640 supplemented with 15% Fetal Bovine Serum (FBS), 2 mM L-glutamine, 4 μg/mL Phytohemagglutinin (PHA-P, Sigma). The cells were allowed to incubate for 48-72 hours at 37° C. After incubation, PBMCs were centrifuged and resuspended in RPMI 1640 with 15% FBS, 2 mM L-glutamine, 100 U/mL penicillin, 100 μg/mL streptomycin, 10 μg/mL gentamycin, and 20 U/mL recombinant human IL-2 (R&D Systems, Inc). […]
For the standard PBMC assay, PHA-P stimulated cells from at least two normal donors were pooled, diluted in fresh medium to a final concentration of 1×10^6 cells/mL, and plated in the interior wells of a 96 well round bottom microplate at 50 μL/well (5×10^4 cells/well). […] Following removal of supernatant samples, compound cytotoxicity was measured by addition of MTS to the plates for determination of cell viability. […]

[2] = Cytotoxicity in PBMCs by MTS (secondary cytotoxicity assay, high-test concentration 25 μM); format: cell-based; details: human PBMCs, MTS cell viability; modified peptides conjugated with HSA; FB005, FB006 unmodified; read-out: TC50 (50% cytotoxicity drug concentration)
Procedure: For the standard PBMC assay, PHA-P stimulated cells from at least two normal donors were pooled, diluted in fresh medium to a final concentration of 1×10^6 cells/mL, and plated in the interior wells of a 96 well round bottom microplate at 50 μL/well (5×10^4 cells/well). Each plate contains virus/cell control wells (cells plus virus), experimental wells (drug plus cells plus virus) and compound control wells ([…], necessary for MTS monitoring of cytotoxicity). Since HIV-1 is not cytopathic to PBMCs, this allows the use of the same assay plate for both antiviral activity and cytotoxicity measurements. Test drug dilutions were prepared at a 2× concentration in microtiter tubes and 100 μL of each concentration was placed in appropriate wells using the standard format. 50 μL of a predetermined dilution of virus stock was placed in each test well (final MOI≈0.1). The PBMC cultures were maintained for seven days following infection at 37° C., 5% CO2, after which cell-free supernatant samples were collected for analysis of reverse transcriptase activity and/or HIV p24 content. Following removal of supernatant samples, compound cytotoxicity was measured by addition of MTS to the plates for determination of cell viability. Wells were also examined microscopically and any abnormalities noted. […]

[3] = HIV-1IIIB in fresh human PBMCs, seven days, FB006M, FB007M, FB010M, FB010KM conjugated with HSA prior to test, FB005, FB006 unmodified peptide, read-out: IC50 (50% viral inhibition drug concentration)

Ac-SLEQIWNNMTWEEWDREINNYTELIHELIEESQNQQEKNEQELL-NH2 [FB005]
IC50 [1, 3]: 0.93 nM
CC50 at 7 days [2]: 14300 nM

Ac-WEEWDREINNYTKLIHELIEESQNQQEKNEQELL-NH2 [FB006]
IC50 ([1]; FB006M and FB007M linked to serum albumin, read-out: IC50 (drug concentration for achieving 50% viral inhibition)): 1.4 nM
IC50 [1, 3]: 1.41 nM
CC50 at 7 days [2]: 15900 nM
